The text below walks through data of patent US10781212B2, “2,6-diamino pyridine compounds” (Eli Lilly and Company, priority 2018, dated 2020).

Each structure is given as a SMILES string.

Series [1] concerns the target human KHK-C (Homo sapiens (Human), UniProt P50053). As to the kind of experiment: KHK enzyme activity assay, human KHK-C. The series is classed as biochemical. The note with it: fructose 250 μM, ATP 150 μM; read-out: hKHK-C IC50. The method, then: (§1) KHK Enzyme Activity Assay for Human KHK-C and Human KHK-A
(§2) Enzyme is prepared in assay buffer [50 mM 4-(2-hydroxyethyl)piperazine-1-ethanesulfonic acid (HEPES), 10 mM potassium chloride, 100 mM magnesium chloride, 2 mM tris(2-carboxyethyl)phosphine (TCEP), 0.01% n-octyl glucoside] and incubated with compounds at RT for 15 min. The reaction is carried out in 100 μL volumes containing substrate concentrations of fructose (250 μM for KHK-C assay and 1.25 mM for KHK-A assay) and ATP (150 μM for both isoforms); which are further incubated at RT for 20 min. The reaction is then halted by the addition of stop buffer; consisting of 0.2% formic acid and 1 μg/ml ^13C6-fructose-6-phosphate (^13C6-F6P) internal standard. […] RapidFire MS Analysis for Quantitation of F1P: […]
(§3) Solvent A, used for sample loading and washing, is 6 mM octylamine (Acros Organics 129495000) brought to pH 5.0 using acetic acid. […] Samples are sequentially analyzed by aspirating 10 μL onto the collection loop under vacuum directly from multiwell plates. […]
(§4) The triple quadrupole mass spectrometer is equipped with an ESI source and analytes are monitored using selected reaction monitoring (SRM) in negative mode [M−H]−. F1P is monitored at m/z 259.02/96.9 and ^13C6-fructose-6-phosphate is monitored at m/z 264.99/97. The area ratio values for F1P is calculated using ^13C6-fructose-6-phosphate as internal standard.

For series [2], the target named is human KHK-A (Homo sapiens (Human), UniProt P50053). As to the kind of experiment: KHK enzyme activity assay, human KHK-A. Format: biochemical. As to conditions: fructose 1.25 mM, ATP 150 μM; read-out: hKHK-A IC50. The method, then: as §1, §2, §3, §4
Series [3] can be described thus: Pharmacokinetics in FVB wild type mice. The note with it: mouse, IV 1 mg/kg. Format: in vivo. The method, then:
(§5) Liquid Chromatograph with Tandem Mass Spectrometry (LC-MS/MS) Method for Pharmacokinetic Assays: Samples are extracted using a protein precipitation by adding 180 μL of MeOH:ACN (1:1, v/v) containing an internal standard and 25 μL (rodent samples) or 50 μL(non-rodent samples) of plasma. Samples are then diluted with Methanol:Water (1:1, v/v) to get concentrations within standard curve range. Diluted samples are analyzed by LC-MS/MS using a Sciex API 4000 triple quadrupole mass spectrometer (Applied Biosystems/MDS; Foster City, Calif.) equipped with a TurbolonSpray interface, and operated in positive ion mode. The analytes are chromatographically separated using a Thermo Betasil C18 5 um 20×2.1 mm Javelin column (rodent samples) or Advantage ECHIELON C18 4 um 20 mm×2.1 mm ID column (non-rodent samples). LC conditions are Water/1 M ammonium bicarbonate, (2000:10, v/v) (Mobile Phase A), and MeOH/1 M ammonium bicarbonate, (2000:10, v/v) (Mobile Phase B).
(§6) Example 1 is administered by a single intravenous (IV; 1 mg/kg; volume of 1 mL/kg) dose in vehicle. Blood is collected from each animal at 0, 0.08, 0.25, 0.5, 1, 2, 4, 8, 12, and 24 h post-dosage. Liver, spleen, and pancreas is collected, weighed and perfused at 24 h post-dosage. The plasma and tissue concentrations of Example 1 are determined by a LC-MS/MS method as described above.

Series [4] in a line: Pharmacokinetics in OATP1A/1B knockout mice. The series is classed as in vivo. As to conditions: OATP1A/1B knockout (Taconic #10707), mouse, IV 1 mg/kg. The method, then:
as §5, §6

Series [5] is described as follows: Pharmacokinetics in Beagle dogs. Format: in vivo. The method, then: as §5
Example 1 is administered by a single oral (PO; 3 mg/kg; volume of 2 mL/kg) or intravenous (IV; 1 mg/kg; volume of 1 mL/kg) dose in vehicle. Blood is collected from each animal at 0, 0.03 (IV group only), 0.08 (IV), 0.25, 0.5, 1, 2, 4, 8, 12, 24, 32 (IV), 48 (IV), and 72 (IV) h post-dosage. The plasma concentrations of Example 1 are determined by a LC-MS/MS method as described above.

Series [6] is described as follows: Elimination pathways in bile duct cannulated Beagle dogs. The series is classed as in vivo. The note with it: IV 1 mg/kg. The method, then: as §5
Example 1 is administered by a single intravenous (IV; 1 mg/kg; volume of 1 mL/kg) dose in vehicle. Blood is collected from each animal at 0, 0.033, 0.083, 0.25, 0.5, 1, 2, 4, 8, 12, 24, 32, 48 and 72 h post-dosage. Bile is collected from each animal at 1, 2, 3, 4, 5, 6, 12, 18, 24, 32, 48 and 72 h post-dosage. Urine is collected at 12, 24, 48, and 72 h and feces collected at 24, 48, and 72 h post-dosage. The plasma, bile, urine and feces concentrations of Example 1 are determined by a LC-MS/MS method as described above.

Series [7] can be described thus: Pharmacokinetics in cynomolgus monkeys. The series is classed as in vivo. The note with it: cynomolgus monkey, plasma, PO 10 mg/kg. The method, then:
as §5
The compounds is administered by a single oral (PO; 10 mg/kg; volume of 5 mL/kg) dose in vehicle. Blood is collected from each animal at 0, 0.25, 0.5, 1, 2, 4, 8, 12, 24, 32, 48, and 72 h post-dosage. The plasma concentrations of Example 1 are determined by a LC-MS/MS method as described above.

For series [8], the system named is human hepatocytes. Put plainly: Intrinsic clearance in human hepatocytes (-/+ABT). Format: in vitro ADME. As to conditions: with vs without ABT (pan-CYP450 inhibitor). The method, then:
Intrinsic Clearance in Human Hepatocytes (−/+ABT)
This method is intended to identify in vitro metabolic clearance by substrate depletion in hepatocytes. Incubation in the presence and absence of ABT, a pan-CYP450 enzyme inhibitor, is used to estimate the contribution of CYP-mediated metabolism. Cryopreserved human hepatocytes are thawed at 37° C., spun down and reconstituted in hepatocyte maintenance media to a density of 1×10^6 viable cells/mL. To a pre-warmed 96-well plate, 196 μL of the hepatocyte suspension is added to each well. The cells are pre-incubated with and without ABT as follows: for ABT pre-incubation, 2 μL of 100 mM ABT solution is added (2 μL of media without ABT is added to control samples), and the plate incubated at 37° C. for 30 min under constant shaking (˜600 rpm). Following, 2 μL of a 30 μM stock solution of test article is added and at 0, 15, 30, 60, 120, 240 min 20 μL aliquots are taken and quenched by transfer to ACN containing internal standard. Following centrifugation at 4000 rpm for 30 min, supernatant concentrations are determined by LC-MS/MS. Clearance is calculated from the slope of % compound remaining over time.

Series [9] addresses OATP1B1 (Homo sapiens (Human), UniProt Q9Y6L6). As to the kind of experiment: Inhibition of OATP1B1 (rosuvastatin uptake). Format: cell-based. As to conditions: rosuvastatin 400 nM substrate, 30 min pre-incubation. The method, then: (§7) Inhibition of OATP1B1 and OATP1B3
(§8) The OATP1B1, OATP1B3, and vector control (VC) cells are grown in 5% CO2 at 37° C. in a humidified atmosphere in DMEM supplemented with 10% FBS, 50 μg/mL gentamycin, and 5 μg/mL blasticidin. The cells are seeded in 24-well BioCoat Poly-D-Lysine plates. The cells are treated with 5 mM sodium butyrate in supplemented DMEM 24 h prior to experimentation. Cell cultures are washed twice with pre-warmed PBS prior to experimentation. After washing, all cell types are incubated for 30 min at 37° C. in 200 μL buffer, buffer plus varying concentration of test article, or with appropriate positive control inhibitor. Based upon preliminary data concentrations from 0.025 to 12.5 μM for OATP1B1 and 0.20 to 100 μM for OATP1B3 (nominal) are tested. At the start of the preincubation, 50 µL of buffer is removed for determination of in-well test article concentrations by LC-MS/MS. Following the pre-incubation period, the buffer is removed. […] Samples are taken from each well from plates to count for radioactivity and protein concentration in each well is determined by bicinchoninic acid method. IC50 values are determined by fitting the data using GraphPad Prism. Nominal concentrations are converted to measured concentrations prior to fitting.

For series [10], the target named is OATP1B3 (Homo sapiens (Human), UniProt Q9NPD5). Put plainly: Inhibition of OATP1B3 (rosuvastatin uptake). The series is classed as cell-based. The note with it: rosuvastatin 400 nM substrate, 30 min pre-incubation. The method, then: as §7, §8
Where [11] appears, read: liver at 24 h, read-out: mean liver unbound partition coefficient (Kpuu).
Setting [12] is: plasma, 1 mg/kg, heading: mean clearance.
[13] abbreviates: plasma, read-out: volume of distribution.

Chain of human KHK-A (P50053 other isoform, or with tags, fused parts or gaps): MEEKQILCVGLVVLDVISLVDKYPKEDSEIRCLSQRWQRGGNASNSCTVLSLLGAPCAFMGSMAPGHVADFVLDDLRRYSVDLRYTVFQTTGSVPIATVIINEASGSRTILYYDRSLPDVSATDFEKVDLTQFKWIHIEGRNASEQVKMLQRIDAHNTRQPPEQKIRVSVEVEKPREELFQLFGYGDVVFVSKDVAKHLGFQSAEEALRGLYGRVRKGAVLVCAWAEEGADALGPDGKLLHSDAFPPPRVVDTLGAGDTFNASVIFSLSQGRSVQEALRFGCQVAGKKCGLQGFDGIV
Chain of human KHK-C (P50053 whole entry, canonical isoform): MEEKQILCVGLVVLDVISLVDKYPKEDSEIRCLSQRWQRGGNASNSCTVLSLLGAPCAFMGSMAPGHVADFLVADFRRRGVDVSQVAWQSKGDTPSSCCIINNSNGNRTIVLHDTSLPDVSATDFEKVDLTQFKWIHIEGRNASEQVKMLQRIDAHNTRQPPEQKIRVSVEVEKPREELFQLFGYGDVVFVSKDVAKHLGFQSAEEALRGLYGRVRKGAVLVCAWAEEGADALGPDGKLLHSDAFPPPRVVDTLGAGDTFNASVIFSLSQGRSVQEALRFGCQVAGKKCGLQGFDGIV
Chain of OATP1B1 (Q9Y6L6 whole entry, species assumed): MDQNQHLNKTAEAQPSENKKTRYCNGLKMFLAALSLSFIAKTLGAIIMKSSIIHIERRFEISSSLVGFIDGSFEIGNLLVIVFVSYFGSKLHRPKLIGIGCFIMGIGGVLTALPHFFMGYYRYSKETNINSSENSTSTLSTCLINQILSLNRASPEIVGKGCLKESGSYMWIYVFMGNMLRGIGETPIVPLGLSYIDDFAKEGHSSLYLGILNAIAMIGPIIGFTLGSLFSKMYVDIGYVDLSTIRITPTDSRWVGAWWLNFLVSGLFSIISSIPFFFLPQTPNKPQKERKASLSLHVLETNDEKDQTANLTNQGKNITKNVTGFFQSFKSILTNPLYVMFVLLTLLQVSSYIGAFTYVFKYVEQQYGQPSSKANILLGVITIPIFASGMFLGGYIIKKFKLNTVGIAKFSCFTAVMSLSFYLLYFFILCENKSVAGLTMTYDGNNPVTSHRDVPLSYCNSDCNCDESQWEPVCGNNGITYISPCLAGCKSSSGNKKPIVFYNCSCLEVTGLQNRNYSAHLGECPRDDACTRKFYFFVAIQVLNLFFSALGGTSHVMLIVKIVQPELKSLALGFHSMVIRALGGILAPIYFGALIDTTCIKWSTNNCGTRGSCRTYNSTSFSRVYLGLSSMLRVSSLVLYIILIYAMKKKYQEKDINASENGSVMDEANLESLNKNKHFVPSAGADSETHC
Chain of OATP1B3 (Q9NPD5 whole entry, species assumed): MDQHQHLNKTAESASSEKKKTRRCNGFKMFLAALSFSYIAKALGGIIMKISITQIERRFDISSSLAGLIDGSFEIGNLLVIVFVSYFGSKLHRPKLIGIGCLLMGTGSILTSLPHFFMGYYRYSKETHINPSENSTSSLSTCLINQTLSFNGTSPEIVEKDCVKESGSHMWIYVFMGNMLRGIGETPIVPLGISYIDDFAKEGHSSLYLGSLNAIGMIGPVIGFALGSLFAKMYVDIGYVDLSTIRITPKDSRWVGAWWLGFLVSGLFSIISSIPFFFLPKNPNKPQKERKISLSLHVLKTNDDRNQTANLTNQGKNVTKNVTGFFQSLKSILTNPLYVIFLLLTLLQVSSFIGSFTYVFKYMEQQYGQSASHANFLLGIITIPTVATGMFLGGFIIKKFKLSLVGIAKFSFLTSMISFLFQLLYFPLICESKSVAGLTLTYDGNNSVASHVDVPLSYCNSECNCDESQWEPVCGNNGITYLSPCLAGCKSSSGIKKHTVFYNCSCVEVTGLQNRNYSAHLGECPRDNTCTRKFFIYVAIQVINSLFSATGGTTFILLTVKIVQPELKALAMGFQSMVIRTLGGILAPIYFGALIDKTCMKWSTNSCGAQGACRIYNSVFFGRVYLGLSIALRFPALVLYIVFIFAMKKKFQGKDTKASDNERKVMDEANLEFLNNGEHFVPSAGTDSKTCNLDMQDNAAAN

`C[C@H]1CCN1c1nc(N2CC[C@H](CC(=O)O)C2)cc(C(F)(F)F)c1C#N` [Example 1, 2-[(3R)-1-[5-cyano-6-[(2S)-2-methylazetidin-1-yl]-4-(trifluoromethyl)-2-pyridyl]pyrrolidin-3-yl]acetic Acid]: the concentration for half-maximal inhibition (IC50) is 9 nM in series [1], 19 nM in [2], 120 nM in [9] and 5500 nM in [10]. Moreover, the Kp uu at 24 h in series [3] (setting [11]) turned out to be 67.5; in series [4] (setting [11]), 24.2. In addition, the clearance in series [3] (setting [12]) was 6.91 mL/min/kg; in series [4] (setting [12]), 1.34 mL/min/kg; in [5] (dog, plasma, 1 mg/kg, heading: mean clearance, IV 1 mg/kg), 2.52 mL/min/kg; in series [6] (dog, plasma, 1 mg/kg, heading: mean clearance), 4.69 mL/min/kg. The half-life in series [3] (plasma) is 5.43 h; in series [4] (plasma), 9.36 h; in series [5] (dog, plasma, IV 1 mg/kg) it was 7.4 h; in series [5] (dog, plasma, PO 3 mg/kg), 6.9 h; in [6] (dog, plasma), 2.9 h; in series [7], 15.3 h. Further, the Vd in series [3] (setting [13]) was determined as 2.74 L/kg; in series [4] (setting [13]), 0.986 L/kg; in [5] (dog, plasma, IV 1 mg/kg, read-out: volume of distribution), 1.33 L/kg; in series [6] (dog, plasma, read-out: volume of distribution) it was 0.546 L/kg. The mean half-life in [5] (IV 1 mg/kg) stood at 7.4 h. The molecule further displayed a bioavailability in [5] (dog, plasma, PO 3 mg/kg) of around 93%. Further, the “administered IV dose recovered in bile” value in series [6] is given as around 10%. Moreover, the urine levels result in series [6] is reported as “negligible”. Besides, the “inhibition of clearance by ABT” value in series [8] was around 12%.
With `C[C@H]1CCN1c1nc(N2CC(CC(=O)O)C2)cc(C(F)(F)F)c1C#N` [Example 2, 2-[1-[5-cyano-6-[(2S)-2-methylazetidin-1-yl]-4-(trifluoromethyl)-2-pyridyl]azetidin-3-yl]acetic Acid], the half-inhibitory concentration (IC50) was 27 nM in [1] and 37 nM in [2].

Usually IC50 stands for the point on the concentration scale where inhibition reaches its midpoint. A word on the clearance: it is the rate of elimination divided by the concentration. A high value points to a high capacity for elimination. The half-life is the time needed for the level to fall by half in the phase considered. A higher half-life goes with slow decline. Broadly, the bioavailability is the share of a dose that reaches the circulation, judged against a reference dose that is usually intravenous.
